The values that follow come from patent publication US9101613B2, “Methods for treating neurological disease” (Neurim Pharmaceuticals (1991) Ltd., priority 2006, dated 2015).

By inhibition is commonly meant the change of the read-out against control, counted positive when it falls. A word on the IC50: it is the concentration that inhibits the measured activity by half. The term Ki denotes a dissociation constant, usually derived from enzyme kinetics or from competition with a known ligand.

One test has as its system CD1 mice. Put plainly: Potentiation of hexobarbital-Na sleep time in mice. Format: in vivo. The protocol:
CD1 mice were divided randomly into groups of seven mice each. The mice in each group were administered intraperitoneally a dose of one of the following: 100 mg/kg of one of test substances O-[2-(5-methoxy-indol-3-yl)-ethyl]-comenic ester, N-[2-(5-methoxyindol-3-yl)-ethyl]-commenamide, N-[2-(5-methoxy-indol-3-yl)-ethyl]-coumalylamide, N-[2-(5-methoxy-indol-3-yl)-ethyl]-chelidonamide, N-[2-(5-methoxy-indol-3-yl)-ethyl]-comanilamide or N-[2-(5-methoxy-indol-3-yl)-ethyl]-2-methoxy-commenamide in saline (0.1 ml/10 g body weight), or saline alone. Fifteen minutes later the mice received a dose of 50 mg/kg of hexobarbital-Na intravenously. Sleep time was measured in each animal as the time from loss to recovery of the righting reflex.

For another test, the target named is T1, MT-1 receptor (Homo sapiens, UniProt P48039).
T1 construct: expressed in transfected cells; host or cells: CHP-K1 (Chinese hamster ovary) cells (so in the source)
T1 sequence (P48039 whole entry): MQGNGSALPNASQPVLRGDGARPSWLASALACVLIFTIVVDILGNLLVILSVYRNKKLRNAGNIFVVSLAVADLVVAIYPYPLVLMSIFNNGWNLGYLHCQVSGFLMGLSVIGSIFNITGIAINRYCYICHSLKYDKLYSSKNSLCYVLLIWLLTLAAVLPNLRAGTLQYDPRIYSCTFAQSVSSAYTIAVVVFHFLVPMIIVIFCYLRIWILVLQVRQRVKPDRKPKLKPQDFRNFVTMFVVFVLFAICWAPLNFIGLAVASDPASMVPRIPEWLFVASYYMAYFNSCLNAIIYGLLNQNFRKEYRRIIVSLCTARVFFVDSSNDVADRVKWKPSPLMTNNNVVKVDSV
As to the kind of experiment: 125I-melatonin binding in membranes of CHP-K1 cells, MT-1. The conditions noted are these: 0.05 nM 125I-melatonin; for inhibition at 10 µM: read-out: MT-1 receptor binding % inhibition by 10 μM; for IC50 / Ki: 25° C., 3 hours; for IC50: read-out: MT-1 receptor binding IC50; for Ki: read-out: MT-1 receptor binding KI. The protocol:
(§1) Aliquots of suspended membranes of human recombinant CHP-K1 (Chinese hamster ovary) cells stably expressing human melatonin-1 or melatonin-2 (MT-1 or MT-2) receptors or of hamster brain (MT-3) were incubated at 25° C. with 0.05 nM ^125I-melatonin in buffer (25 mM HEPES, pH 7.4, 5 mM MgCl2, 1 mM CaCl2, 0.5% BSA) or with 0.1 nM for MT-3 alone or in the presence of 1 nM, 10 nM, 0.1 μM, 1 μM and 10 μM of test substances N-[2-(5-methoxy-indol-3-yl)-ethyl]-commenamide, N-[2-(5-methoxy-indol-3-yl)-ethyl]-comanilamide, N-[2-(5-methoxy-indol-3-yl)-ethyl]-coumalylamide, N-[2-(5-methoxy-indol-3-yl)-ethyl]-2-methoxy-commenamide, N-[2-(5-methoxy-indol-3-yl)-ethyl]-chelidonamide, O-[2-(5-methoxy-indol-3-yl)-ethyl]-comenic ester, N-[2-(5-methoxy-indol-3-yl)-ethyl]-2-Pyrone-6-carboxamide and N-[2-(2-bromo-5-methoxy-indol-3-yl)-ethyl]-coumalylamide for 3 hours for MT-1, 4 hours for MT-2 and 30 min for MT-3. The binding reaction was terminated and the membranes were washed with 4 ml of ice-cold HEPES buffer by vacuum filtration. Membranes were then collected, and the filters containing the bound ^125I-melatonin were assayed for the amount of radioactivity in a […]. Non-specific binding was evaluated using a reaction with 1 μM 6-chloromelatonin (MT-1 and MT-2) or 30 μM melatonin (MT-3).

Another test concerns the target T2, MT-2 receptor (Homo sapiens, UniProt P49286).
T2 construct: expressed in transfected cells; host or cells: CHP-K1 (Chinese hamster ovary) cells (so in the source)
T2 sequence (P49286 1-362): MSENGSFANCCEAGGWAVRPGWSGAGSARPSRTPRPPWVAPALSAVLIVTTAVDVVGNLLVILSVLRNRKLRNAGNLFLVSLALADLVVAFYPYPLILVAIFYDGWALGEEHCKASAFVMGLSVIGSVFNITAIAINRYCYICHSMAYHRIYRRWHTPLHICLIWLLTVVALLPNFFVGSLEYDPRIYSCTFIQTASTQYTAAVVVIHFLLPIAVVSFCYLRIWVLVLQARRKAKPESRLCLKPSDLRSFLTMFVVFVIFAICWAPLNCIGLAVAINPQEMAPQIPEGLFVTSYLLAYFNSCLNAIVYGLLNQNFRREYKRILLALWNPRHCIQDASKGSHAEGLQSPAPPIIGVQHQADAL
As to the kind of experiment: 125I-melatonin binding in membranes of CHP-K1 cells, MT-2. The conditions noted are these: 0.05 nM 125I-melatonin; for IC50 / Ki: 25° C., 4 hours; for IC50: read-out: MT-2 receptor binding IC50; for Ki: read-out: MT-2 receptor binding KI; for inhibition at 10 µM: read-out: MT-2 receptor binding % inhibition by 10 μM. On the procedure: as §1

For another test, the system named is 3T3-L1 adipocytes. Put plainly: 2-[3H]-deoxy-d-glucose uptake in FFA-treated 3T3-L1 adipocyte model. Format: cell-based. On the procedure:
Adipocytes were glucose-starved for 1 h in Hepes-salt buffer containing 2% FFA-free BSA. FFA (free fatty acids) were then added to the cells at the indicated concentrations (300 μM) for the indicated times (3 h). 10 min before the end of the FFA treatment, the cells were stimulated with insulin (20 nM)/melatonin (10 nM)/test compounds (10 nM) at 37° C. 2-[^3H]-deoxy-d-glucose at 1 μCi/mL and 0.1 mM unlabeled 2-deoxyglucose in KRP-HEPES buffer was added and cells were incubated for 10 min at room temperature. Non-specific glucose uptake was measured by parallel incubations in the presence of 10 μM cytochalasin B, which blocks transporter-mediated glucose uptake, and was subtracted from total uptake in each assay. Cells were then washed three times with ice-cold phosphate buffered saline (PBS) and solubilized in 1M NaOH for 20 minutes. The sample was then counted using a scintillation counter. 2-[^3H]-deoxy-d-glucose uptake was assayed in triplicates for each condition in at least 3 independent experiments. 2-[^3H]-deoxy-d-glucose uptake (counts per minute-cpm) are presented as mean+SE of triplicates in a representative experiment or results of three independent experiments. ANOVA test was used with significance of P<0.05 (Table 7).

In a further test the test system is mice. Put plainly: Rotarod assay, interaction with diazepam.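 Further: Success means running more than 120 min on the rod.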 It counts as in vivo. The conditions noted are these: Diazepam 1.5 mg/kg p.o. + Vehicle i.p.; 15 rpm. On the procedure:
The incidences of animals running more than […] on the rotating rod were noted, and significances were calculated by non-parametric x^2 test. 8 mice/group were used.
The rotarod apparatus is divided into five test zones, so that up to five mice may be tested at the same time. The rod has been specially machined to provide a suitable grip for the animal. The diameter of the rod is 3.5 cm. The rotation speed was 15 rpm. When the animal falls off the rotating rod, it presses a button to record automatically the time spent on the rod. On the day before the experiment the mice were trained to run on the rod rotating with 15 rpm. Diazepam was administered orally 60 min before the rotarod assay, test substances were administered intraperitoneally 15 min before testing.
(In general: The rotarod test checks motor coordination on a turning rod.)

The test system of test [1] is rat primary cortical neurons. As to the kind of experiment: Neurite outgrowth in rat primary cortical neurons. Format: cell-based. The note with it: 5 days of culture. On the procedure: The aim of this study was to assess the potential effect of N-[2-(5-methoxy-indol-3-yl)-ethyl]-comanilamide (100 nM) after 5 days of culture on neurite outgrowth in rat primary cortical neurons. The study used three separate cultures (n=6 wells per condition); the mean value of the 3 cultures (+/−sem) was calculated.
Rat cortical neurons were cultured as described by Singer et al., 1999. Briefly pregnant female rats of 15 days gestation are killed by cervical dislocation (Rats Wistar; Janvier) and the fetuses removed from the uterus. The cortex are removed and placed in ice-cold medium of Leibovitz (L15; Invitrogen) containing 1% of Penicillin-Streptomycin (PS; Invitrogen) and 1% of bovine serum albumin (BSA; Sigma). Cortex are dissociated by trypsinisation for 20 min at 37° C. (Trypsin EDTA 1×; Invitrogen) diluted in PBS without calcium and magnesium. The reaction is stopped by the addition of Dulbecco's modified Eagle's medium (DMEM; Invitrogen) containing DNAase I grade II (0.1 mg/ml; Roche Diagnostic) and 10% of fetal calf serum (FCS; Invitrogen). Cells are then mechanically dissociated by 3 passages through a 10 ml pipette. Cells are then centrifuged at 180×g for 10 min at 10° C. The supernatant is discarded and the cells of pellet are re-suspended in a defined culture medium consisting of Neurobasal (Invitrogen) supplemented with B27 (2%; Invitrogen), L-glutamine (0.2 mM; Invitrogen) and 1% of PS solution with 10 ng/ml of Brain-derived neurotrophic factor (BDNF).
For the neurite outgrowth assay, the cells are seed with test compound A (at 100 nM) and reference compound (BDNF at 10 ng/ml used as reference control) on defined medium (Neurobasal supplemented with 2% of B27, 0.2 mM of L-glutamine and 1% of PS).
The cultures were done (a) without BDNF in order to analyse the neurotrophic effect of compounds alone and (b) with low BDNF concentration (0.5 ng/ml) in order to analyse the synergic neurotrophic effect of N-[2-(5-methoxy-indol-3-yl)-ethyl]-comanilamide with the growth factor.
After 5 days of culture in presence of N-[2-(5-methoxy-indol-3-yl)-ethyl]-comanilamide and reference, cells were fixed by a cool solution of ethanol (95%) and acetic acid (5%) for 10 min. After permeabilization with 0.1% of saponin, cells were incubated with monoclonal antibody anti microtubule associated protein 2 (MAP-2; Sigma). This antibody stains specifically cell bodies and neurite of neurons. […] Nuclei of neurons were labeled by a fluorescent marker (Hoechst solution, SIGMA). Per well, 20 pictures were taken using InCell Analyzer™ 1000 (GE Healthcare) with 20× magnification. All images were done in the same conditions. Analysis of the neuritis networks and neuron were assessed using Developer software (GE Healthcare). […]

For the molecule `COc1ccc2[nH]cc(CCOC(=O)c3cc(=O)c(O)co3)c2c1` [O-[2-(5-methoxy-indole-3-yl)-ethyl]-comenic ester], in the test on CD1 mice (100 mg/kg i.p.), the “effect on hexobarbital-Na narcosis time” value is reported as “significantly increased the hexobarbital-Na narcosis time”. In the test with CD1 mice (100 mg/kg i.p. 15 min before 50 mg/kg hexobarbital-Na i.v.), the “Changes (%) vs. Vehicle (sleep time)” value is “+108%”. Besides, in the test on CD1 mice (100 mg/kg i.p. 15 min before 50 mg/kg hexobarbital-Na i.v., loss to recovery of righting reflex), the “Mean Sleep Time-Treatment (min) ± SE” value was found to be 15.15 ± 6.02 min. The inhibition at 10 µM on MT-1 receptor is 47%. Besides, at MT-2 receptor, the IC50 was 1640 nM, the Ki worked out at 850 nM and the inhibition at 10 µM worked out at 78%. In addition, in the test on 3T3-L1 adipocytes (Insulin 20 nM + FFA 300 μM (3 h) + substance 10 nM), the “2-[3H]-deoxy-d-glucose uptake (cpm)” value is on record as 1787 cpm.

Turning to `COc1ccc2[nH]cc(CCNC(=O)c3cccc(=O)o3)c2c1` [N-[2-(5-methoxy-indol-3-yl)-ethyl]-2-Pyrone-6-carboxamide], at MT-1 receptor, the IC50 came out at 10100 nM, the Ki was 5240 nM and the inhibition at 10 µM was 50%. For the same molecule, at MT-2 receptor, the IC50 is 5060 nM, the Ki was found to be 2630 nM and the inhibition at 10 µM came out at 65%.

Take Insulin: the “2-[3H]-deoxy-d-glucose uptake (cpm)” value in the test on 3T3-L1 adipocytes (Insulin (20 nM) alone, no FFA) is listed as 1839 cpm.

Turning to `CN1C(=O)CN=C(c2ccccc2)c2cc(Cl)ccc21` [Diazepam, reference compound], in the test with mice, the “Incidence of performance (rotarod)” value is 6/8.

In the case of `COc1ccc2[nH]c(Br)c(CCNC(=O)c3ccc(=O)oc3)c2c1` [N-[2-(2-bromo-5-methoxy-indol-3-yl)-ethyl]-coumalylamide], at MT-1 receptor, the IC50 was 2400 nM, the Ki was 1250 nM and the inhibition at 10 µM was 76%. In addition, on MT-2 receptor, the IC50 was 850 nM, the inhibitory constant (Ki) worked out at 441 nM and the inhibition at 10 µM turned out to be 89%.

B1: BDNF: Brain-derived neurotrophic factor, growth factor used as reference compound (protein, UniProt P23560 19-247, looked up)
Neurotrophic factor BDNF …: APMKEANIRGQGGLAYPGVRTHGTLESVNGPKAGSRGLTSLADTFEHVIEELLDEDQKVRPNEENNKDADLYTSRVMLSSQVPLEPPLLFLLEEYKNYLDAANMSMRVRRHSDPARRGELSVCDSISEWVTAADKKTAVDMSGGTVTVLEKVPVSKGQLKQYFYETKCNPMGYTKEGCRGIDKRHWNSQCRTTQSYVRALTMDSKKRIGWRFIRIDTSCVCTLTIKRGR
Consider B1, for which the “neurite length, % of control” value in test [1] (BDNF 0.5 ng/ml alone) is ~125 % of control; in test [1] (BDNF 10 ng/ml reference), ~153 % of control.
